Patent US20250235447A1, “METHODS FOR TREATING CARDIOVASCULAR CONDITIONS AND METHODS OF INCREASING THE EFFICIENCY OF CARDIAC METABOLISM” (IMBRIA PHARMACEUTICALS, INC., priority 2021, published 2025)

Experiments:
[1] = Pharmacodynamic study in obese patients with Type 2 diabetes: preliminary safety data; type: in vivo, human
Experimental: (§1) This was a randomized study consisting of a population of 20 patients with Type 2 diabetes and a BMI≥30 kg/m^2. The first five patients were treated for four weeks; the subsequent 15 patients (patients 6-20) were treated for eight weeks (with five additional patients prn). Ten patients had hyperpolarized ^13C-pyruvate MRS.
The preliminary baseline characteristics of randomized participants is detailed in FIG. 52. The preliminary baseline characteristics of completers is detailed in FIG. 53. FIG. 54 details adverse events as of the data cut-off date of September 20. Nineteen patients were on the drug from approximately one to eight weeks. There were no SAEs. Seven subjects reported nine adverse events. Two subjects had three drug-related AEs. All AEs were mild or moderate in severity. […] Overall, the compound was well-tolerated.

[2] = 28-day dog toxicity study (NOAEL and exposure); type: in vivo; details: from HED
Experimental: Based on the nonclinical toxicology data, it was considered that subjects in this clinical study were not at unreasonable risk of adverse effects. […] For a 60-kg individual, the NOAEL dose would be 6480 mg. With a 10-fold safety factor applied, this would allow for a maximum recommended starting dose (MRSD) of 648 mg/day.7,8 The planned starting dose in the current Phase 1 study was 50 mg, equivalent to 0.83 mg/kg/day for a 60-kg subject. This starting dose is less than 10% of the MRSD determined from the dog NOAEL and less than 1% of the dog NOAEL.
The relevant animal study was the 28-day dog study where the NOAEL for IMB-1018972 was 200 mg/kg/day.

[3] = FIH study: safety and tolerability (adverse events, laboratory, vital signs, ECG)
Experimental: AEs were recorded from (first) admission until completion of the follow-up visit. Any clinically significant observations in results of clinical laboratory, 12-lead ECGs, vital signs, or physical examinations were recorded as AEs.
A treatment-emergent AE (TEAE) was defined as any event not present prior to (the first) administration of the study drug or any event already present that worsened in either severity or frequency following exposure to the study drug.
The severity of the AEs was rated as mild, moderate, or severe; the relationship between the AEs and the study drug was indicated as none, unlikely, possibly, likely, or definitely. Adverse events assessed as possibly, likely, or definitely were considered related to the study drug; AEs assessed as none or unlikely were considered not related to the study drug.
The ECG was recorded using an ECG machine equipped with computer-based interval measurements (with no/minimal disturbance by procedures). The following ECG parameters were recorded: heart rate, PR-interval, QRS-duration, QT-interval, QTcF-interval, and the interpretation of the ECG profile by the Investigator.

[4] = system: myocardial energetics and metabolism; test: Pharmacodynamic study in obese patients with Type 2 diabetes (PCr/ATP, myocardial triglyceride, body weight); type: in vivo, human
Experimental: Results of a pharmacodynamic study to evaluate the impact of 200 mg BID of a composition of a compound with formula (X) on rest myocardial energetics (PCr/ATP) in obese individuals with type 2 diabetes are detailed in FIGS. 52-65. The key endpoints of the study were to evaluate the metabolic response, specifically the impact on PDH flux using hyperpolarized ^13C-pyruvate MRS, as a measure of the compound's ability to promote glucose oxidation and recouple glucose oxidation with glycolysis. Also assessed was the effect on cardiac systolic and diastolic function, measured by cardiac magnetic resonance (CMR) and transthoracic echocardiography (TTE), and the effect on cardiac steatosis using ^1H-MRS.
The primary objective is to evaluate the impact of 200 mg of formula (X) on rest and stress myocardial energetics (PCr/ATP). Other objectives include: to evaluate the metabolic response, specifically the impact on PDH flux using hyperpolarized ^13C-pyruvate MRS, as a measure of the compound's ability to promote glucose oxidation; to assess the effect on cardiac systolic and diastolic function, as measured by cardiac magnetic resonance (CMR) and transthoracic echocardiography (TTE); to measure the impact on myocardial steatosis.
as §1

[5] = FIH study, SAD part: plasma pharmacokinetics after single oral dose; details: all blood samples of subjects that received IMB-1018972
Experimental: (§2) Each subject participated in only 1 group during the study.
(§3) The blood samples were taken via an indwelling intravenous catheter or by direct venipuncture. The exact times of blood sampling were recorded in the eCRF.

[6] = human, in vivo
Experimental: Subjects received multiple oral doses of an IR formulation of IMB-1018972 or placebo once every 12 hours (q12 h) for 14 consecutive days. Each subject participated in only 1 group during the study.
The doses were selected based upon the safety, tolerability, and PK data from the SAD part: • Group B1 multiple oral doses of an IR formulation of 150 mg IMB-1018972 (n=9) or matching placebo (n=3) twice daily (q12 h) for 14 days; on Day 14 only a single morning dose was administered • Group B2: multiple oral doses of an IR formulation of 50 mg IMB-1018972 (n=9) or matching placebo (n=3) q12 h for 14 days; on Day 14 only a single morning dose was administered
Before each morning dose, subjects fasted overnight for at least 10 hours following a snack on the evening before. On Days 1 and 14, subjects received a standardized breakfast that had to be consumed within 20 minutes. Dosing occurred at 30 minutes after the start of breakfast. Following dosing, subjects fasted for 4 hours until lunch. During fasting, fluids other than water were not allowed. On Days 2 to 13, breakfast was not standardized and was given within maximally 1 hour before dosing and consumed before dosing. No fasting after dosing was applicable on these days.

[7] = clinical; details: human, in vivo, 50 mg
Experimental: as §2, §3

[8] = human, in vivo; remark: listed apart in the source
Experimental: as §2, §3

[9] = 200 mg, combined 4- and 8-week cohorts, interim data

In the case of `COc1ccc(CN2CCN(CCOC(=O)c3cccnc3)CC2)c(OC)c1OC` [IMB-1018972], the Flushing ([1]; nineteen patients on drug) is reported as “no flushing reported”, the “Number of adverse events” value ([1]; nineteen patients on drug) is reported as “nine” and the “Number of drug-related AEs” value ([1]; nineteen patients on drug) is reported as “three”. For the same compound, the “Subjects reporting adverse events” value ([1]; nineteen patients on drug) was “Seven”, the “Subjects with drug-related AEs” value ([1]; nineteen patients on drug) was “Two” and the SAEs ([1]; nineteen patients on drug about one to eight weeks) was “no SAEs”. For the same compound, the Tolerability ([1]; overall) was “well-tolerated”, the “NOAEL dose for a 60-kg individual” value [2] was 6480 mg and the “Effect of fed dosing on number and incidence of TEAEs” value ([3]; FE arm of SAD part) was “appeared to attenuate the number and incidence of TEAEs”. The “Subjects with TEAEs of flushing, SOC vascular disorders” value ([3]; MAD part) was 33.3%, the “Subjects with TEAEs, SOC general disorders and administration site conditions” value ([3]; MAD part) was 27.8% and the “Subjects with TEAEs, SOC musculoskeletal and connective tissue disorders” value ([3]; MAD part) was 27.8%. The “Number of TEAEs of flushing (mild)” value ([3]; MAD part, 150 mg q12 h) was 7, the “Subjects with TEAEs considered related to the study drug” value ([3]; MAD part, 6 of 18) was 33.3% and the “Subjects with TEAEs considered not related to the study drug” value ([3]; MAD part, 11 of 18) was 61.1%. The “Subjects with TEAEs, SOC gastrointestinal disorders” value ([3]; SAD part) was 16.7%, the “Subjects with TEAEs, SOC general disorders and administration site conditions” value ([3]; SAD part) was 20.8% and the “Subjects with TEAEs, SOC nervous system disorders” value ([3]; SAD part) was 29.2%. For the same compound, the “Subjects with TEAEs, SOC skin and subcutaneous tissue disorders” value ([3]; SAD part) was 16.7%, the “Subjects with TEAEs, SOC vascular disorders” value ([3]; SAD part) was 29.2% and the “Subjects with drug-related TEAEs of flushing (vascular disorders)” value ([3]; SAD part) was 25%. For the same compound, the “Subjects with drug-related TEAEs, nervous system disorders” value ([3]; SAD part) was 16.7%, the “Subjects with TEAEs considered related to the study drug” value ([3]; SAD part, 7 of 24) was 29.2% and the Subjects reporting flushing ([3]; single 150 mg IMB-1018972, fasted, FE arm) was 2. The Subjects reporting flushing ([3]; single 400 mg IMB-1018972, fasted) was “Four”, the “Cardiac energetics (PCr/ATP)” value [4, 9] was “significant and meaningful increase” and the “Myocardial steatosis (myocardial triglycerides)” value [4, 9] was “highly significant reduction”. The Mean fasting glucose ([4]; short-term administration, cohorts of the study) was “significant reduction”, the Body weight ([4]; short-term administration, combined 4- and 8-week cohorts) was “significant weight loss” and the “IMB-1018972 (parent) in plasma samples” value [5] was “could be measured in only few plasma samples”.

With `COc1ccc(CN2CCNCC2)c(OC)c1OC` [trimetazidine] the “Geometric mean Cmax lower, MAD Day 1 150 mg fed vs SAD single 150 mg fed” value [6] was 32%, the Tmax [7] was 8 h and the “Time at which detectable concentrations generally appeared” value [8] was 15 to 30 min.
